Measurements taken from US20240317739A1, “NOVEL UREA DERIVATIVE COMPOUND AS RON INHIBITOR” (LG CHEM, LTD., priority 2021, published 2024).

Experiments:
RON = RON (Homo sapiens, UniProt Q04912); assay: Evaluation of inhibitory activity against RON (TR-FRET); type: biochemical; settings: TR-FRET kinase assay, RON protein
Protocol: In order to measure the inhibitory activity of each of the compounds of Examples against RON, the IC50 of each of the compounds was measured using a Time-Resolved Fluorescence Energy Transfer Chemistry (TR-FRET).
(§1) Specifically, the compound was prepared to a concentration of 1 mM with 100% DMSO and was diluted 10 times in a stepwise manner through 3-fold dilution. 2 ul of the compound diluted in a stepwise manner was added to a 96-well-plate containing 48 ul of a 1×kinase reaction buffer (50 mM HEPES (pH 7.4), 0.01% Tween-20, 5 mM DTT, 0.5 mM Na3VO4, 2 mM EGTA, 10 mM MgCl2).
The RON protein was diluted to a concentration of 49.3 nM with an RON storage buffer (50 mM Tris-HCl (pH 7.5), 150 mM NaCl, 0.5 mM EDTA, 0.02% Triton X-100), and then diluted again to a concentration of 0.4 nM with a 1×kinase reaction buffer. As a substrate cocktail, a RON-specific substrate mixture (40 uM ULight-labeled Poly GT, 100 nM ATP) at a concentration 2 times the final reaction concentration.
(§2) Thereafter, a 384-well-plate was prepared, and 2.5 μl of each of the diluted compounds of Examples was added to a corresponding well of experimental group wells, and 2.5 μl of a 4% DMSO solution was dispensed into high control wells and low control wells.
(§3) Thereafter, 2.5 μL of 0.4 nM RON was dispensed into the high control wells and the experimental group wells, and 2.5 μL of a 1× kinase reaction buffer was added to the low control wells, and the RON and the reaction buffer were centrifuged at room temperature for 40 seconds at 1000 RPM, and then incubated at room temperature for 20 to 30 minutes. Then, 5 uL of a substrate cocktail (2×) was dispensed into all wells, centrifuged at room temperature for 40 seconds at 1000 RPM, and then incubated at room temperature for 60 minutes. Thereafter, 5 uL of 30 mM EDTA was added to all wells to terminate the reaction, and then incubated again at room temperature for 5 minutes. Thereafter, 5 uL of a 4× phosphotyrosine antibody (Perkin Elmer) containing europium was added to all wells, and then incubated at room temperature for 60 minutes. After the incubation, the 384-well-plate was read with a Vison plate reader. At this time, the excitation wavelength was 340 nm, and the emission wavelength was 620 nm and 665 nm. The IC50 value of the compound of each Example was derived using the GraphPd Prism7 program.

cMET = cMET (Homo sapiens, UniProt P08581); assay: Evaluation of inhibitory activity against MET (TR-FRET); type: biochemical; settings: TR-FRET kinase assay, cMET protein
Chain of cMET (P08581 25-1390): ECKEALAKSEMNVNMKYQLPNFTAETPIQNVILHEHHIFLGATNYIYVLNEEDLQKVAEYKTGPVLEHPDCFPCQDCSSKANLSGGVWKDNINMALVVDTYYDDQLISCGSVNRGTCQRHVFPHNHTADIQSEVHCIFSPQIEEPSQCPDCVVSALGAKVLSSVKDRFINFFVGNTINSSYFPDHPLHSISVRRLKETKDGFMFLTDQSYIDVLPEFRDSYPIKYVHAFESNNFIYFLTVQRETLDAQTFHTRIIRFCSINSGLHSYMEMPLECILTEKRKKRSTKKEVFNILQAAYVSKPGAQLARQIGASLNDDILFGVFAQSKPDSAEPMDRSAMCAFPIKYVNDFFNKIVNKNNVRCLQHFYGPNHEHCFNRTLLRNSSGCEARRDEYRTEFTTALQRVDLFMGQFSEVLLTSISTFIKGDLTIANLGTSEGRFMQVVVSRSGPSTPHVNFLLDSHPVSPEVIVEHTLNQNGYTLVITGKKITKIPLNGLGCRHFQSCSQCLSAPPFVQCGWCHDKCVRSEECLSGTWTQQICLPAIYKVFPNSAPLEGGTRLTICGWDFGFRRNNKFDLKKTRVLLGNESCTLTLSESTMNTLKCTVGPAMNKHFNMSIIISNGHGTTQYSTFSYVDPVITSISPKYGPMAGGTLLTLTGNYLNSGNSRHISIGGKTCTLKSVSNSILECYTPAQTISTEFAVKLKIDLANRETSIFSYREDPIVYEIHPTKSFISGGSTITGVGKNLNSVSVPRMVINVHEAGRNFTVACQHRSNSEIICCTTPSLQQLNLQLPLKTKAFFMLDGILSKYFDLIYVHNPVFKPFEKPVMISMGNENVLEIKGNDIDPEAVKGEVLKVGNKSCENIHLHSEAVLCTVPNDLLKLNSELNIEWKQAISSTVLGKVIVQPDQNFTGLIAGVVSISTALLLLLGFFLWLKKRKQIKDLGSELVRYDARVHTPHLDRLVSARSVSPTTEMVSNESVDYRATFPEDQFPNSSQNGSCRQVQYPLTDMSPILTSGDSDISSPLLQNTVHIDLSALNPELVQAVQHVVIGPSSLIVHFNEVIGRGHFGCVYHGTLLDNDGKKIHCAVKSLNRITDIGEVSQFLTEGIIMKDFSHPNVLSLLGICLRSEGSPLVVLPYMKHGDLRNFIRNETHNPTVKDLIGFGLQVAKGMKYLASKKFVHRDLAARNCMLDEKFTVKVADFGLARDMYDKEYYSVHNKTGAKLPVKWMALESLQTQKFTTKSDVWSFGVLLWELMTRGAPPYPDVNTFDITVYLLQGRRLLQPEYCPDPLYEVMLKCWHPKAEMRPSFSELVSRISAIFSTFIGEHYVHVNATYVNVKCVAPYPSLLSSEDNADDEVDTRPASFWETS
Protocol: In addition, in order to measure the enzyme activity inhibition for cMET, the evaluation was performed in the same manner as the enzyme activity inhibition measurement experiment for the RON.
as §1, with “a 1× kinase” for “a 1×kinase”, “7.4), 0.05% BSA, 0.005%” for “7.4), 0.01%”, “Tween-20, 1” for “Tween-20, 5”, “mM MnCl2, 20” for “mM Na3VO4, 2 mM EGTA, 10”
The cMET protein was diluted to a concentration of 263 nM with a cMET storage buffer (50 mM Tris-HCl (pH 7.5), 150 mM NaCl, 0.05% Brij35, 1 mM DTT, 10% Glycerol), and then diluted again to a concentration of 2 nM with a 1× kinase reaction buffer. As a substrate cocktail, a MET-specific substrate mixture (5 uM TK peptide, […]) at a concentration 2 times the final reaction concentration.
as §2
as §3, with “of 2” for “of 0.4”, “nM cMET” for “nM RON”, “of 90” for “of 30”, “The […]” for “The IC50”

Chain of RON (Q04912 25-1400, species assumed): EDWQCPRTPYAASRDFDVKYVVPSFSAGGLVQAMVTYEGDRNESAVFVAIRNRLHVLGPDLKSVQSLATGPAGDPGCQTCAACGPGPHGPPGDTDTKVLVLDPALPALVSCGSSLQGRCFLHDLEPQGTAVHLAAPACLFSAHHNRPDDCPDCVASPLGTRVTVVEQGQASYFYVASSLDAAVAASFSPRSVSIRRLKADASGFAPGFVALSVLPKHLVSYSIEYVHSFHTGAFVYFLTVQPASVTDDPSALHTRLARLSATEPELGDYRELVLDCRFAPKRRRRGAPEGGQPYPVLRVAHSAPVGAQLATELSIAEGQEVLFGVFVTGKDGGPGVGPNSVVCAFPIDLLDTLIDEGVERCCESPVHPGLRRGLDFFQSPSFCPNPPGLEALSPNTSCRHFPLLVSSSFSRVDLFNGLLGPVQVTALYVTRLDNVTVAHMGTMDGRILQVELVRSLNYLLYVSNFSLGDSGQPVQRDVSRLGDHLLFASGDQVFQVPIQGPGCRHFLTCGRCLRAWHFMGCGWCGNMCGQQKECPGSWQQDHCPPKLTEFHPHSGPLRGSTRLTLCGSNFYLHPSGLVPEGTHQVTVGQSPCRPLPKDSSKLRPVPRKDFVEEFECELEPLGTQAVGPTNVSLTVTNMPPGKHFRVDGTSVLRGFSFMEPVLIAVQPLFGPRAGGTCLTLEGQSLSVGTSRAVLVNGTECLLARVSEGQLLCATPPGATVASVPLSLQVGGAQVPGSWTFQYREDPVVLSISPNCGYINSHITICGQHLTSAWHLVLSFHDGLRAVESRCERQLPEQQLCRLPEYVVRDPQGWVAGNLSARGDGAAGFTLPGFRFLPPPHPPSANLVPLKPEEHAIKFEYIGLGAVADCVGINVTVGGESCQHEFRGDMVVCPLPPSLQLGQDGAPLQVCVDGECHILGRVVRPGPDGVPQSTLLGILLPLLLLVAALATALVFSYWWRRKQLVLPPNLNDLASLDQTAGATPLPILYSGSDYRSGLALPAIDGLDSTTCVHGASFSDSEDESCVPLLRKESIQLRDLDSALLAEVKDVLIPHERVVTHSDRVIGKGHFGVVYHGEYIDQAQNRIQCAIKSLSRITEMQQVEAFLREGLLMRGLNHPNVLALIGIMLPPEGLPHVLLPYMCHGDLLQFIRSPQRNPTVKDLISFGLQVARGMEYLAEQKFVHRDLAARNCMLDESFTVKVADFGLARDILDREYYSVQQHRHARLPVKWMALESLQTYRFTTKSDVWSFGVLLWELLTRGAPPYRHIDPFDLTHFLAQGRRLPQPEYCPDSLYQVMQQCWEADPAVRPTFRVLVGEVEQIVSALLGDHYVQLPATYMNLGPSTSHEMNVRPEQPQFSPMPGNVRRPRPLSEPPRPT

Row | Compound | IC50 (RON) | IC50 (cMET)
1 | CC(C)n1c(=O)[nH]c2nccc(Oc3ccc(NC(=O)c4cnn(-c5cc(C6=CCOCC6)ccn5)c4C(F)(F)F)cc3F)c21 [Example 32, 1-(4-(3,6-dihydro-2H-pyran-4-yl)pyridine-2-yl)-N-(3-fluoro-4-((1-isopropyl-2-oxo-2,3-dihydro-1H-imidazo[4,5-b]pyridine-7-yl)oxy)phenyl)-5-(trifluoromethyl)-1H-pyrazole-4-carboxamide] | 0.05 to 0.5 µM | 0.5 to 5 µM
2 | CC(C)n1c(=O)[nH]c2nccc(Oc3ccc(NC(=O)c4cnn(-c5ncccc5F)c4C(F)(F)F)cc3F)c21 [Example 7, N-(3-fluoro-4-((1-isopropyl-2-oxo-2,3-dihydro-1H-imidazo[4,5-b]pyridine-7-yl)oxy)phenyl)-1-(3-fluoropyridine-2-yl)-5-(trifluoromethyl)-1H-pyrazole-4-carboxamide] | < 0.05 µM | 0.5 to 5 µM
3 | CC(C)n1c(=O)[nH]c2nccc(Oc3ccc(NC(=O)c4cnn(-c5ncccc5Cl)c4C(F)(F)F)cc3F)c21 [Example 10, 1-(3-chloropyridine-2-yl)-N-(3-fluoro-4-((1-isopropyl-2-oxo-2,3-dihydro-1H-imidazo[4,5-b]pyridine-7-yl)oxy)phenyl)-5-(trifluoromethyl)-1H-pyrazole-4-carboxamide] | < 0.05 µM | 0.5 to 5 µM
4 | CC(C)n1c(=O)[nH]c2nccc(Oc3ccc(NC(=O)c4cnn(-c5cc(C6CC6)ccn5)c4C(F)(F)F)cc3F)c21 [Example 31, 1-(4-cyclopropylpyridine-2-yl)-N-(3-fluoro-4-((1-isopropyl-2-oxo-2,3-dihydro-1H-imidazo[4,5-b]pyridine-7-yl)oxy)phenyl)-5-(trifluoromethyl)-1H-pyrazole-4-carboxamide] | 0.05 to 0.5 µM | 0.5 to 5 µM
5 | CC(C)n1c(=O)[nH]c2nccc(Oc3ccc(NC(=O)c4cnn(-c5ccc(C(F)(F)F)cn5)c4C(F)(F)F)cc3F)c21 [Example 13, N-(3-fluoro-4-((1-isopropyl-2-oxo-2,3-dihydro-1H-imidazo[4,5-b]pyridine-7-yl)oxy)phenyl)-5-(trifluoromethyl)-1-(5-(trifluoromethyl)pyridine-2-yl)-1H-pyrazole-4-carboxamide] | > 5 µM | > 5 µM

Second part, the molecule after the results:

Row | IC50 (RON) | IC50 (cMET) | Compound
6 | < 0.05 µM | 0.5 to 5 µM | CCc1cccnc1-n1ncc(C(=O)Nc2ccc(Oc3ccnc4[nH]c(=O)n(C(C)C)c34)c(F)c2)c1C(F)(F)F [Example 29, 1-(3-ethylpyridine-2-yl)-N-(3-fluoro-4-((1-isopropyl-2-oxo-2,3-dihydro-1H-imidazo[4,5-b]pyridine-7-yl)oxy)phenyl)-5-(trifluoromethyl)-1H-pyrazole-4-carboxamide]
7 | < 0.05 µM | > 5 µM | CC(C)n1c(=O)[nH]c2nccc(Oc3ccc(NC(=O)c4cnn(-c5cc(Br)ccn5)c4C(F)(F)F)cc3F)c21 [Example 16, 1-(4-bromopyridine-2-yl)-N-(3-fluoro-4-((1-isopropyl-2-oxo-2,3-dihydro-1H-imidazo[4,5-b]pyridine-7-yl)oxy)phenyl)-5-(trifluoromethyl)-1H-pyrazole-4-carboxamide]
8 | < 0.05 µM | 0.5 to 5 µM | CC(C)n1c(=O)[nH]c2nccc(Oc3ccc(NC(=O)c4cnn(-c5ccncc5)c4C(F)(F)F)cc3F)c21 [Example 24, N-(3-fluoro-4-((1-isopropyl-2-oxo-2,3-dihydro-1H-imidazo[4,5-b]pyridine-7-yl)oxy)phenyl)-1-(pyridine-4-yl)-5-(trifluoromethyl)-1H-pyrazole-4-carboxamide]
